For 6 compounds, melting point results are on record in US7189756B2, “Pyrrolidine derivatives” (Hoffman-La Roche Inc., priority 2000, dated 2007).

Broadly, the melting point is the temperature, or range, at which the solid turns liquid.

Regarding `CCOC(=O)c1nnn(C[C@@H]2C[C@@H](S)CN2S(=O)(=O)c2ccc3ccccc3c2)c1C`, the melting point was determined as 95 °C.
For `Cc1c(-c2ccccc2)nnn1C[C@@H]1C[C@@H](S)CN1S(=O)(=O)c1ccc2ccccc2c1` the value was 146 °C.
For `Nc1c(-c2ccccc2)nnn1C[C@@H]1C[C@@H](S)CN1S(=O)(=O)c1ccc2ccccc2c1`, the melting point stood at 70 °C.
For `CS(=O)(=O)N1C[C@H](S)C[C@H]1Cn1nnc(C(N)=O)c1N` the value was 189 °C; for `CS(=O)(=O)N1C[C@H](S)C[C@H]1COCC1CCCCC1`, 68 to 69 °C; for `O=C(Nc1ccccc1F)N1C[C@H](S)C[C@H]1CNCc1cc(F)ccc1F`, 126 °C.
